Here are results for 18 compounds from ChEMBL document CHEMBL1221352, “Synthesis and biological activity of flavanone derivatives” (Bioorg Med Chem Lett, 2010).

Each structure is given as a SMILES string. pEC50, pIC50: −log10 of the molar value.

In test [1] the test system is Bel-7402. Kind of test: Antitumor activity against human Bel7402 cells. More on the design: concentration or dose not given beside the values. It is filed as functional.
Test [2] deals with HL-60. Put plainly: Antitumor activity against human HL60 cells. It is filed as functional. More on the design: concentration or dose not given beside the values.
The subject of test [3] is BGC-823. Kind of test: Antitumor activity against human BGC823 cells. It is filed as functional. More on the design: concentration or dose not given beside the values.
The subject of test [4] is KB. Kind of test: Antitumor activity against human KB cells. In kind it is functional. More on the design: concentration or dose not given beside the values.
Test [5] in a line: Inhibition of protein tyrosin kinase. To be noted: for pIC50: read-out: IC50.
Test [6] in a line: Antivegetative activity against rat VSMC. In kind it is functional, cell-based. To be noted: for pIC50: read-out: IC50.
The test system of test [7] is HUVEC. Put plainly: Cytoprotectant activity against H2O2-induced injury in HUVEC cells. It is filed as functional, cell-based, Homo sapiens. The settings on record: for pEC50: Homo sapiens, HUVEC, read-out: EC50; for EC50: huvec.

As a reminder, the pEC50 is the negative decadic logarithm of the EC50, by convention in mol/L. For the compound `Cc1c(O)c(C)c2c(c1O)C(=O)CC(c1c[nH]c3ccccc13)O2` (centres undefined), the Activity in test [1] is reported as 6.45%; in test [2] it was 11.39%; in test [3], 1.67%; in test [4] it was 10.47%. Also, the IC50 result in test [5] and in test [6] was “Not Active” each time. Moreover, the pEC50 in test [7] is under 5.00.

A word on the pIC50: it is −log10 of the IC50, conventionally taken in molar units. In the case of `Cc1c(O)c(C)c2c(c1O)C(=O)CC(c1ccc(O)cc1)O2` (centres undefined), the Activity in test [1] was -6.53%; in test [2], -3.37%; in test [3], -23.52%; in test [4], -7.21%. The negative logarithm of the IC50 (pIC50) in test [5] was under 3.70. For the same compound, the IC50 entry in test [6] was “Not Active”. For the same compound, the pEC50 in test [7] is under 4.70.

On to `Cc1c(O)c(C)c2c(c1O)C(=O)CC(c1ccccc1O)O2` (centres undefined), for which the Activity in test [1] is listed as -1.8%; in test [2], -6.47%; in test [3], -6.69%; in test [4], 44.54%. Further, in test [5], the pIC50 was 4.26. The IC50 entry in test [6] was “Not Active”. For the same compound, the pEC50 in test [7] is under 4.70.

As to `Cc1c(O)c(C)c2c(c1O)C(=O)CC(c1cccc(O)c1)O2` (centres undefined), the Activity is recorded as -5.48% in test [1], -4.04% in test [2], -7.6% in test [3] and 28.66% in test [4]. In addition, the pIC50 in test [5] was 4.29. Moreover, the IC50 entry in test [6] was “Not Active”. In addition, the pEC50 in test [7] was under 4.70.

With `Cc1c(O)c(C)c2c(c1O)C(=O)CC(c1ccc(Cl)cc1)O2` (centres undefined), the Activity in test [1] is listed as -7.1%; in test [2], 7.65%; in test [3], -22.45%; in test [4], 15.89%. Moreover, the IC50 entry in test [5] and in test [6] was “Not Active” each time. Also, in test [7], the pEC50 is under 4.30.

Regarding `Cc1c(O)c(C)c2c(c1O)C(=O)CC(c1ccccc1Cl)O2` (centres undefined), the Activity in test [1] worked out at 18.7%; in test [2] it was 2.94%; in test [3], 36.98%; in test [4], 28.63%. Besides, the values for the pIC50 in test [5] and in test [6] were under 4.30 and under 4.70, respectively. Further, the pEC50 in test [7] is under 4.70.

Turning to `Cc1c(O)c(C)c2c(c1O)C(=O)CC(c1ccc([N+](=O)[O-])cc1)O2` (centres undefined), the Activity was 2.05% in test [1], -0.46% in test [2], -7.41% in test [3] and -9.11% in test [4]. In addition, the IC50 result in test [5] and in test [6] was “Not Active” in each case. In addition, in test [7], the pEC50 was under 4.70.

In the case of `Cc1c(O)c(C)c2c(c1O)C(=O)CC(c1ccccc1[N+](=O)[O-])O2` (centres undefined), the Activity in test [1] is on record as 27.18%; in test [2], -6.16%; in test [3], 52%; in test [4] it was 29.04%. Moreover, the pIC50 is under 4.30 in test [5] and 5.00 in test [6]. In addition, the pEC50 in test [7] is under 5.30.

Consider `COc1ccc(C2CC(=O)c3c(O)c(C)c(O)c(C)c3O2)cc1` (centres undefined), for which the Activity in test [1] is given as 15.15%; in test [2] it was 8.52%; in test [3] it was -28.89%; in test [4], -11.99%. Besides, the negative-log IC50 (pIC50) in test [5] and in test [6] was under 4.00 each time. Also, the EC50 result in test [7] is “Not Active”.

For `COc1ccccc1C1CC(=O)c2c(O)c(C)c(O)c(C)c2O1` (centres undefined), the pIC50 in test [5] was under 4.00. Besides, the IC50 result in test [6] is recorded as “Not Active”. The pEC50 in test [7] was under 4.70.

`COc1ccc(C2CC(=O)c3c(O)c(C)c(O)c(C)c3O2)c(OC)c1` (centres undefined): the IC50 result in test [5] and in test [6] was “Not Active” each time. Besides, in test [7], the EC50 entry was “Not Active”.

Regarding `COc1cc(O)ccc1C1CC(=O)c2c(O)c(C)c(O)c(C)c2O1` (centres undefined), the Activity in test [1] is 2.54%; in test [2] it was -1.29%; in test [3], 4.85%; in test [4], -18.83%. Further, the values for the pIC50 in test [5] and in test [6] were under 3.70 and under 4.00, respectively. In addition, the pEC50 in test [7] was under 4.70.

As to `Cc1c(O)c(C)c2c(c1O)C(=O)CC(c1ccco1)O2` (centres undefined), the Activity was 3.27% in test [1], 12.96% in test [2], -9.68% in test [3] and -26.34% in test [4]. For the same compound, the IC50 result in test [5] is “Not Active”. For the same compound, the pIC50 in test [6] was 5.17. Further, the pEC50 in test [7] was under 4.70.

As to `Cc1c(O)c(C)c2c(c1O)C(=O)CC(c1ccsc1)O2` (centres undefined), the Activity in test [1] stood at 11.59%; in test [2], 10.82%; in test [3], 50.71%; in test [4] it was 16.07%. Besides, the IC50 entry in test [5] and in test [6] was “Not Active” throughout. The pEC50 in test [7] was under 4.30.

With `Cc1c(O)c(C)c2c(c1O)C(=O)CC(c1ccc(O)c(O)c1)O2` (centres undefined) [CYRTOMINETIN], the Activity is -7.68% in test [1], -4.85% in test [2], -19.81% in test [3] and 45.3% in test [4]. Moreover, the pIC50 in test [5] is under 4.30. Moreover, the IC50 entry in test [6] is “Not Active”. For the same compound, in test [7], the pEC50 is under 4.70.

In the case of `Cc1c(O)c(C)c2c(c1O)C(=O)C[C@@H](c1ccccc1)O2` [DEMETHOXYMATTEUCINOL], the Activity is 2.63% in test [1], 13.51% in test [3] and 3.64% in test [4]. For the same compound, in test [6], the negative-log IC50 (pIC50) is under 4.00. Moreover, in test [7], the EC50 result is listed as “Not Active”.

Consider `COc1ccc2cc1Oc1ccc(cc1)C[C@H]1c3cc(c(OC)cc3CCN1C)Oc1c(OC)c(OC)cc3c1[C@H](C2)N(C)CC3` [FANCHININ], for which, in test [6], the pIC50 was 5.83.

Take `O=c1c(-c2ccc(O)cc2)coc2cc(O)cc(O)c12` [GENISTEIN]: in test [5], the pIC50 is 4.87.
